# Measurements reported in paper PMC5882164, “A novel calcimimetic agent, evocalcet (MT-4580/KHK7580), suppresses the parathyroid cell function with little effect on the gastrointestinal tract or CYP isozymes in vivo and in vitro” (PLoS ONE, 2018).
# Counter-ions that a name gives are not always drawn.
# Columns and labels:
# emesis = details: common marmoset, in vivo, 4 h
# Method: The study of effect of evocalcet on emesis in common marmoset was performed by referencing a previously reported method. The marmosets (n = 24) used for this study were housed in cages (460 × 600 × 655 mm) with environmental enrichments (wooden perches, swing, and balls) and acclimated for at least 4 weeks. The marmosets were fasted from evening on the day before administration. To confirm the reduction in the serum PTH levels, blood samples (about 300~400 μL, 1.2∼1.6% of total blood volume) were collected from the femoral or saphenous vein without an anesthesia before and at 1 and 4 h after the oral administration of evocalcet (1.5 or 5 μg/kg, n = 3 in each dose) or cinacalcet (300 or 500 μg/kg, n = 3 in each dose) suspended in 0.5% methyl cellulose solution using a metallic gastric zonde. The serum PTH level was measured using a Porcine Intact PTH ELISA kit (Immutopics, Inc., San Clemente, CA, USA). To evaluate the emetic effects in marmosets, evocalcet (50 or 150 μg/kg) or cinacalcet (1500 or 5000 μg/kg) was orally administered (n = 6/drug, dose down titration, n = 12 in total). The observation of emesis was conducted until 4 h after the administration.
# CYP2A6 = target: T1, CYP2A6 (Homo sapiens, UniProt P11509); assay: CYP inhibition assay in human liver microsomes; type: in vitro ADME; details: no pre-incubation, read-out: IC50 direct inhibition of CYP2A6
# T1 construct: from tissue; host or cells: human liver microsomes
# T1 sequence (P11509 1-494): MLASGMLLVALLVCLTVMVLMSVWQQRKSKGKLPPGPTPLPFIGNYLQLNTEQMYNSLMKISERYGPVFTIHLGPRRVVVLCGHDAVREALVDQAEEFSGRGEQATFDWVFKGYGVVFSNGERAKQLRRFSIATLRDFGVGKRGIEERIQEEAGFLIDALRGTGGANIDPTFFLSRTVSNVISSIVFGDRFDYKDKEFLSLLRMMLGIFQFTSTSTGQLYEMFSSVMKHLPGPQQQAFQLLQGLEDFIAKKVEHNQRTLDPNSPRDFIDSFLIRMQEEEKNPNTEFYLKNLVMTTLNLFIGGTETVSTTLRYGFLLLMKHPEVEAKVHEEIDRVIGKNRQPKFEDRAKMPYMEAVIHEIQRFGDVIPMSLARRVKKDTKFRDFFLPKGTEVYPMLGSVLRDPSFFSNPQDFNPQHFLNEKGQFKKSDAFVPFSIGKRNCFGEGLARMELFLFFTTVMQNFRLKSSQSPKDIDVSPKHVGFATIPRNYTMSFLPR
# Method: (§1) The direct inhibition of evocalcet (0.15~50 μM, 6-point concentrations) against the specific activities of 9 CYP isozymes (CYP1A2, CYP2A6, CYP2B6, CYP2C8, CYP2C9, CYP2C19, CYP2D6, CYP2E1, and CYP3A4/5) was examined in human liver microsomes without the pre-incubation of evocalcet, in the presence of the NADPH-generating system. Each CYP substrate was incubated with human liver microsomes in the absence or presence of evocalcet, and the inhibition of evocalcet for each CYP isozyme was measured.
# CYP2B6 = target: T2, CYP2B6 (Homo sapiens, UniProt P20813); assay: CYP inhibition assay in human liver microsomes; type: in vitro ADME; details: no pre-incubation, read-out: IC50 direct inhibition of CYP2B6
# T2 construct: from tissue; host or cells: human liver microsomes
# T2 sequence (P20813 1-491): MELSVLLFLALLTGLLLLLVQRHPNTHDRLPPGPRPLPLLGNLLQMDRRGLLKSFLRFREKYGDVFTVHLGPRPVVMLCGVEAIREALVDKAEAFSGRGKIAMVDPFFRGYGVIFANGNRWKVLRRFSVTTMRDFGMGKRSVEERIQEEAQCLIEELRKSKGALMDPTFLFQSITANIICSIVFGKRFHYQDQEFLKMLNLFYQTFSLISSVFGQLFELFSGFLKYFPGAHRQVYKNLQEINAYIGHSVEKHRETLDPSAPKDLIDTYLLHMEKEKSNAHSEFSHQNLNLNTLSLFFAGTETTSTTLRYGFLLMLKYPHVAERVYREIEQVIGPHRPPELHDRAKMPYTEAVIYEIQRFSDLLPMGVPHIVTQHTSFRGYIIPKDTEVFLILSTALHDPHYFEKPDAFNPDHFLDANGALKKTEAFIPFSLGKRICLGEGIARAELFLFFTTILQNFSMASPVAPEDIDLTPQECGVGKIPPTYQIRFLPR
# Method: as §1
# CYP2D6 = CYP2D6 (Homo sapiens, UniProt P10635); assay: CYP inhibition assay in human liver microsomes; type: in vitro ADME; details: no pre-incubation
# Method: as §1
# CYP2E1 = target: T3, CYP2E1 (Homo sapiens, UniProt P05181); assay: CYP inhibition assay in human liver microsomes; type: in vitro ADME; details: no pre-incubation, read-out: IC50 direct inhibition of CYP2E1
# T3 construct: from tissue; host or cells: human liver microsomes
# Method: as §1
# CYP3A4/5 = assay: CYP inhibition assay in human liver microsomes; type: in vitro ADME; details: no pre-incubation, read-out: IC50 direct inhibition of CYP3A4/5
# Method: as §1
# Chain of CYP2D6 (P10635 whole entry): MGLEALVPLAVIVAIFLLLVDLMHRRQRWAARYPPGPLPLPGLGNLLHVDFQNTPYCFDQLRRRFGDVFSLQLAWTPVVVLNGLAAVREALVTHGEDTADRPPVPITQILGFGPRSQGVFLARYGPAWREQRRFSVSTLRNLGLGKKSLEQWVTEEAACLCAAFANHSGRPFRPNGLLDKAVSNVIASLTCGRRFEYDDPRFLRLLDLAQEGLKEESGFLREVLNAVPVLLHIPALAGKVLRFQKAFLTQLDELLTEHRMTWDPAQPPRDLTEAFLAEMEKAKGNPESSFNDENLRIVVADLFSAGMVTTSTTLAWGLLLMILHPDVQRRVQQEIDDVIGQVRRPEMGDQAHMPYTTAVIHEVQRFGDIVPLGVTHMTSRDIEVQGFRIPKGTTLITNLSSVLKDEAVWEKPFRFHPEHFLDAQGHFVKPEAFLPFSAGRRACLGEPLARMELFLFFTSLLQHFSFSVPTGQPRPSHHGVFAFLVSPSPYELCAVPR
# T3 sequence (P05181 whole entry): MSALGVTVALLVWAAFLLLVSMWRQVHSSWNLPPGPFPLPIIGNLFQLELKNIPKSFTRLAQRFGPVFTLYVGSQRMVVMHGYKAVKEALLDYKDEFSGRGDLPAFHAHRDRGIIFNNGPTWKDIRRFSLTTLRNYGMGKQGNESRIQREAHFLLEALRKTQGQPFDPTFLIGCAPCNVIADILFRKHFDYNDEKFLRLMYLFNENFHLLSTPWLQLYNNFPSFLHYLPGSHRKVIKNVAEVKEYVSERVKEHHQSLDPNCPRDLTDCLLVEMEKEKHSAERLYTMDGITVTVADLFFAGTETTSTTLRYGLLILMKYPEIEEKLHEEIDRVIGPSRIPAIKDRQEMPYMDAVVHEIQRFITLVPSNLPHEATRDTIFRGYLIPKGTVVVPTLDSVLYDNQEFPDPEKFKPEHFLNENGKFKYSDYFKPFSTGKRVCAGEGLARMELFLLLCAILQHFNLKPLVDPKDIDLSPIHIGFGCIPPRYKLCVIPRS
Compound,Safety margin (emesis),IC50 (CYP2A6),IC50 (CYP2B6),"CYP2D6 activity in the presence of evocalcet (CYP2D6; 50 μM evocalcet, direct inhibition)",IC50 (CYP2D6; read-out: IC50 direct inhibition of CYP2D6),IC50 (CYP2E1),IC50 (CYP3A4/5)
"C[C@@H](NCCCc1cccc(C(F)(F)F)c1)c1cccc2ccccc12 [cinacalcet, Cinacalcet hydrochloride, reference compound]",3 < X < 10,–,–,–,–,–,–
C[C@@H](N[C@H]1CCN(c2ccc(CC(=O)O)cc2)C1)c1cccc2ccccc12 [evocalcet],–,> 50 µM,> 50 µM,50.7%,> 50 µM,> 50 µM,> 50 µM
